Reference: ChEMBL document CHEMBL1201862, “PubChem BioAssay data set” (2004)
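All cell lines were grown in 96-well plates and treated with compound for 48 hours. Here, GI50 denotes the concentration required for 50% inhibition of growth.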 Active and inactive are the calls of the source. No stated cut-off is given here; in the data, active = GI50 up to about 1.1 µM and inactive = higher.

Tests used:
Assay in all cases: inhibition of tumour cell growth, NCI panel, 48 h
NCI/ADR-RES = test system: NCI/ADR-RES
RPMI-8226 = test system: RPMI-8226
EKVX = test system: EKVX
Malme-3M = test system: Malme-3M
HT-29 = test system: HT-29
BT-549 = test system: BT-549
K562 = test system: K562
SR = test system: SR
OVCAR-4 = test system: OVCAR-4
786-0 = test system: 786-0
TK-10 = test system: TK-10
HL-60 = test system: HL-60
SF-268 = test system: SF-268
ACHN = test system: ACHN
U-251 = test system: U-251
T47D = test system: T47D
UACC-257 = test system: UACC-257
SK-MEL-5 = test system: SK-MEL-5
LOX IMVI = test system: LOX IMVI
HOP-92 = test system: HOP-92

SMILES | GI50 (NCI/ADR-RES) | GI50 (RPMI-8226) | GI50 (EKVX) | GI50 (Malme-3M) | GI50 (HT-29) | GI50 (BT-549) | GI50 (K562) | GI50 (SR) | GI50 (OVCAR-4) | GI50 (786-0) | GI50 (TK-10) | GI50 (HL-60) | GI50 (SF-268) | GI50 (ACHN) | GI50 (U-251) | GI50 (T47D) | GI50 (UACC-257) | GI50 (SK-MEL-5) | GI50 (LOX IMVI) | GI50 (HOP-92)
Cc1cc(C)cc(Nc2nnc3n2S(=O)(=O)c2cc(C)c(Cl)cc2S3)c1 | 2.99 µM (inactive) | 2.88 µM (inactive) | 11.2 µM (inactive) | 1.87 µM (inactive) | 7.26 µM (inactive) | 4.22 µM (inactive) | 3.01 µM (inactive) | 2.09 µM (inactive) | 8.69 µM (inactive) | 4.94 µM (inactive) | 10.7 µM (inactive) | 4.17 µM (inactive) | 3.81 µM (inactive) | 7.66 µM (inactive) | 3.24 µM (inactive) | 5.69 µM (inactive) | 4.35 µM (inactive) | 5.92 µM (inactive) | 3.44 µM (inactive) | –
COC(=O)C1=C(O)C(C(=O)OC)[C@]2(O)[C@H](C(=O)OC)[C@H]1C[C@@H](c1ccc(OC)cc1)[C@H]2C(=O)OC (stereo not given in full) | 23.8 µM (inactive) | 12.4 µM (inactive) | 26.3 µM (inactive) | 17.7 µM (inactive) | 29.8 µM (inactive) | 30.8 µM (inactive) | 15.5 µM (inactive) | 16.1 µM (inactive) | 19.8 µM (inactive) | 20.2 µM (inactive) | 34.3 µM (inactive) | – | 19.6 µM (inactive) | 18 µM (inactive) | 24.5 µM (inactive) | 22.3 µM (inactive) | 24.7 µM (inactive) | 13.7 µM (inactive) | 24.4 µM (inactive) | 59.7 µM (inactive)
N#Cc1ccc(-n2c3ccccc3c3ccc4c(c32)C(=O)C=CC4=O)cc1 | 10.9 µM (inactive) | 3.72 µM (inactive) | 1.91 µM (inactive) | – | 1.66 µM (inactive) | 12.2 µM (inactive) | 1.29 µM (inactive) | 1.46 µM (inactive) | 3.78 µM (inactive) | 1.56 µM (inactive) | 3.4 µM (inactive) | 0.578 µM (active) | 2.62 µM (inactive) | 1.56 µM (inactive) | 4.56 µM (inactive) | 2.74 µM (inactive) | 4.67 µM (inactive) | 5.02 µM (inactive) | 2.99 µM (inactive) | 1.52 µM (inactive)
COC12OC3(C4OC41)C(C(=O)O[C@H]3CO[Si](C)(C)C(C)(C)C)C2S(=O)(=O)c1ccccc1 (stereo not given in full) | > 100 µM (inactive) | 1.67 µM (inactive) | > 4.65 µM (inactive) | > 41.8 µM (inactive) | – | > 49.9 µM (inactive) | 1.6 µM (inactive) | 2.63 µM (inactive) | – | 2.89 µM (inactive) | 4.06 µM (inactive) | < 0.01 µM (active) | – | 2.69 µM (inactive) | > 4.65 µM (inactive) | > 83.9 µM (inactive) | > 4.65 µM (inactive) | – | – | 3.27 µM (inactive)
CC(=O)OC1C2CCC3C(C)(O)C4CC(O)C(C)(C)C4(O)C(O)CC13CC2(C)O (stereo not given) | > 100 µM (inactive) | > 100 µM (inactive) | > 100 µM (inactive) | – | > 100 µM (inactive) | > 100 µM (inactive) | > 100 µM (inactive) | > 100 µM (inactive) | > 100 µM (inactive) | > 100 µM (inactive) | > 100 µM (inactive) | > 100 µM (inactive) | > 100 µM (inactive) | > 100 µM (inactive) | – | > 100 µM (inactive) | > 100 µM (inactive) | > 100 µM (inactive) | > 100 µM (inactive) | > 100 µM (inactive)
CCOC1OC(CO[Si](C)(C)C(C)(C)C)C(O)CC1n1ccc(=O)[nH]c1=O (stereo not given) | > 100 µM (inactive) | 49.8 µM (inactive) | > 100 µM (inactive) | > 100 µM (inactive) | 47.5 µM (inactive) | > 100 µM (inactive) | 31.9 µM (inactive) | 42.6 µM (inactive) | > 100 µM (inactive) | 78.3 µM (inactive) | > 100 µM (inactive) | – | 30.8 µM (inactive) | > 100 µM (inactive) | > 100 µM (inactive) | 52 µM (inactive) | > 100 µM (inactive) | 59.2 µM (inactive) | 17.4 µM (inactive) | 85.7 µM (inactive)
N#Cc1ncn(-c2ccccc2)c1N | > 100 µM (inactive) | > 100 µM (inactive) | > 100 µM (inactive) | > 100 µM (inactive) | > 100 µM (inactive) | > 100 µM (inactive) | > 100 µM (inactive) | > 100 µM (inactive) | > 100 µM (inactive) | > 100 µM (inactive) | > 100 µM (inactive) | > 100 µM (inactive) | > 100 µM (inactive) | > 100 µM (inactive) | > 100 µM (inactive) | > 100 µM (inactive) | > 100 µM (inactive) | > 100 µM (inactive) | > 100 µM (inactive) | –
CCCC#CC(O)(C(=O)OC1CCN(C)CC1)C1CCCCC1 (stereo not given) | > 100 µM (inactive) | > 100 µM (inactive) | > 100 µM (inactive) | > 100 µM (inactive) | 55.2 µM (inactive) | 88.7 µM (inactive) | > 100 µM (inactive) | > 100 µM (inactive) | > 100 µM (inactive) | > 100 µM (inactive) | > 100 µM (inactive) | – | > 100 µM (inactive) | > 100 µM (inactive) | > 100 µM (inactive) | > 100 µM (inactive) | 46.6 µM (inactive) | 38.9 µM (inactive) | > 100 µM (inactive) | 85.7 µM (inactive)
CC(C)(C)N(Cc1ccc2c(c1)OCO2)C(=O)/C=C\Sc1ccccc1 | 89.5 µM (inactive) | 30.3 µM (inactive) | 60.8 µM (inactive) | – | 28.8 µM (inactive) | 42.6 µM (inactive) | 42.9 µM (inactive) | 4.44 µM (inactive) | 77.8 µM (inactive) | > 100 µM (inactive) | > 100 µM (inactive) | 37.1 µM (inactive) | – | > 100 µM (inactive) | 63.7 µM (inactive) | 21.4 µM (inactive) | 71.1 µM (inactive) | 53.2 µM (inactive) | 77.8 µM (inactive) | 14.2 µM (inactive)
CC(=O)Nc1sc(Br)cc1S(=O)(=O)c1ccc(Cl)cc1 | 21.9 µM (inactive) | 23.2 µM (inactive) | 37.2 µM (inactive) | 32.1 µM (inactive) | 16.9 µM (inactive) | 35.6 µM (inactive) | 21.1 µM (inactive) | 14.6 µM (inactive) | 23.2 µM (inactive) | 26.2 µM (inactive) | 46.7 µM (inactive) | 21.9 µM (inactive) | 30.1 µM (inactive) | 34 µM (inactive) | 34.8 µM (inactive) | 32.1 µM (inactive) | 29.9 µM (inactive) | > 10 µM (inactive) | – | 20.1 µM (inactive)
N#C[BH2-][n+]1cn(C2CC(O)C(COP(=O)(O)OC3CC(n4cnc5c(=O)[nH]c(N)nc54)OC3CO)O2)c2nc(N)[nH]c(=O)c21 (stereo not given) | > 100 µM (inactive) | – | > 100 µM (inactive) | > 100 µM (inactive) | > 100 µM (inactive) | 6.25 µM (inactive) | – | 1 µM (active) | > 100 µM (inactive) | > 100 µM (inactive) | – | > 100 µM (inactive) | > 100 µM (inactive) | > 100 µM (inactive) | > 100 µM (inactive) | > 100 µM (inactive) | > 100 µM (inactive) | > 100 µM (inactive) | – | > 100 µM (inactive)
